Assay results reported in patent publication US9528990B2, “Fluorogenic/fluorescent probes derivative from sulfoxanthene, and use thereof” (bioMérieux, priority 2014, dated 2016).
One block for each compound: values may come before it.

Tests used:
E. coli K12 = test: Bacterial azoreduction overnight, compared with Methyl Red; format: cell-based; conditions: 100 μM, overnight 37° C.
Procedure: a) The bacterial reduction of SR101-Q-CO2H was compared to the one of Methyl Red, an azo dye. Each molecule at 100 μM in Trypcase Soya Broth in presence 7.5*10^7 colonies forming unit (cfu) of E. coli K12 was incubated overnight at 37° C. The fluorescence produced by the azoreduction of Methyl Red was measured at 395 nm under an excitation wavelength of 250 nm. The fluorescence produced by the azoreduction of SR101-Q-CO2H was measured at 580 nm under an excitation wavelength of 550 nm. For Methyl Red the ratio between medium with and without bacteria was 469/184 (×2.5). For SR101-Q-CO2H, it was 19 times upper: 17269/363 (×48).

[1] = target: nitroreductase from Escherichia coli (NfsA) (Escherichia coli, UniProt P17117); test: Kinetic study of SR101-NO2 with purified nitroreductase; format: biochemical
Procedure: A kinetic study was carried out by incubating the substrate SR101-NO2 in PBS at 37.5° C., at a concentration of about 5 μM.
Successive additions of NADH and nitroreductase from Escherichia coli (NfsA=4×2.5 μg) were performed and the fluorescence at 575 nm (emission maximum of SR101-110) was measured, under an excitation wavelength of 500 nm.

[2] = test system: E. coli strain (ATCC 25922); test: Reduction of SR101-NO2 by growing E. coli cells, followed by fluorescence; format: cell-based, Escherichia coli; conditions: about 10^6 cfu/ml, Trypcase Soya Broth, 37° C.; 0-100 μM as SR101-110/SR101-NO2 about 10/90; ex 550 nm, em 580 nm (FIG. 1c)
Procedure: The reduction of SR101-NO2 by an E. coli strain (ATCC 25922), known for its nitroreduction ability, was analyzed in fluorescence.
This kinetic study was carried out with an initial concentration of cells around 10^6 cfu/ml, growing in Trypcase Soya Broth at 37° C., in presence of different concentrations of fluorogenic substrate (from 0 μM to 100 μM). For this study, said fluorogenic substrate is used in the form of a SR101-110/SR101-NO2 (with a ratio of about 10/90).
The fluorescence at 580 nm was measured, under an excitation wavelength of 550 nm.

[3] = test system: sulfatase from Helix pomatia; test: Kinetic study with sulfatase; format: biochemical; conditions: about 10 μM, PBS pH 7.4, 7.8 units sulfatase, 37° C.; ex 540 nm
Procedure: A kinetic study of SR101-NaphtO(SO3H) was carried out by incubating this fluorogenic substrate, previously solubilized in phosphate buffered saline (pH 7.4) at a concentration of about 10 μM, with 7.8 units of a sulfatase from Helix pomatia, at 37° C. The evolution of the intensity of fluorescence at 600 nm, emitted under an excitation wavelength of 540 nm, was recorded and is presented in FIG. 6.

[4] = Chemically simulated myeloperoxidase activity with sodium hypochlorite; conditions: about 10 μM, PBS pH 7.4, 150 equivalents sodium hypochlorite, 25° C.; ex 540 nm
Procedure: A kinetic study of SR101-NaphtO(para-aminophenyl) acid was carried out by incubating this fluorogenic substrate, previously solubilized in phosphate buffered saline (pH 7.4) at a concentration of about 10 μM, with 150 equivalents of sodium hypochlorite, at 25° C.
This chemical procedure using sodium hypochlorite is routinely used to simulate a myeloperoxidase activity (Shepherd et al., Chemistry and Biology, 2007, 14: 1221-1231).
The evolution of the intensity of fluorescence at 650 nm, emitted under an excitation wavelength of 540 nm, was recorded and is presented in FIG. 7.

pig liver esterase (PLE) = test: Kinetic study with carboxylesterase; format: biochemical; conditions: about 5 μM, PBS pH 7.4, 10 units PLE, 37° C.; ex 540 nm (SR101-NaphtOAc) or 530 nm (SR101-NaphtO-lauric acid)
Procedure: 1. A kinetic study of SR101-NaphtOAc was carried out by incubating this fluorogenic substrate, previously solubilized in phosphate buffered saline (pH 7.4) at a concentration of about 5 μM, with 10 units of pig liver esterase (PLE), at 37° C. The evolution of the intensity of fluorescence at 600 nm, emitted under an excitation wavelength of 540 nm, was recorded and is presented in FIG. 5a. 2. A kinetic study of SR101-NaphtO-lauric acid was carried out by incubating this fluorogenic substrate, previously solubilized in phosphate buffered saline (pH 7.4) at a concentration of about 5 μM, with 10 units of pig liver esterase (PLE), at 37° C. The evolution of the intensity of fluorescence at 600 nm, emitted under an excitation wavelength of 530 nm, was recorded and is presented in FIG. 5b.

[5] = emitted fluorescence before and after the reduction (FIG. 1b)

Sequence of nitroreductase from Escherichia coli (NfsA) (P17117 whole entry): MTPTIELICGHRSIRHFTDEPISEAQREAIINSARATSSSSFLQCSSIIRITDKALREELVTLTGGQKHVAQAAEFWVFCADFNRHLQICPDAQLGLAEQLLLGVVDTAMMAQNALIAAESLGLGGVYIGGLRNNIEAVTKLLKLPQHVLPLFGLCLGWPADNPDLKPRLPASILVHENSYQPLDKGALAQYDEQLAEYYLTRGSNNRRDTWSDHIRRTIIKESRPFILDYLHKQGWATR

SMILES: CN(C)c1ccc(/N=N/c2ccccc2C(=O)O)cc1 [Methyl Red]
fluorescence of medium with bacteria (E. coli K12; Trypcase Soya Broth, 7.5*10^7 cfu, Methyl Red ex 250/em 395 nm, SR101-Q-CO2H ex 550/em 580 nm): 469 | ratio between medium with and without bacteria (×) (E. coli K12): 2.5

SMILES: O=[N+]([O-])c1ccc2c(c1)Oc1c3c4c(cc1=C2c1ccc(S(=O)(=O)O)cc1S(=O)(=O)[O-])CCC[N+]=4CCC3 [SR101-NO2]
reduction of the substrate by nitroreductase ([1]; 5 μM substrate, total 10 μg enzyme (4×2.5 μg), after an hour of incubation at 37.5° C.): complete reduction | influence of NADH alone on the evolution of the fluorescence ([1]; NADH 0.5 mM, no enzyme, about 5 μM substrate in PBS, 37.5° C., ex 500 nm, em 575 nm): did not influence | fluorescence enhancement (factor) [1, 5]: 15 | quenching efficiency [1, 5]: 92% | nitroreduction by growing cells (fluorescence evolution) [2]: progressive nitroreduction

SMILES: CCCCCCCCCCCC(=O)Oc1ccc2c3c(ccc2c1)C(c1ccc(S(=O)(=O)O)cc1S(=O)(=O)O)=c1cc2c4c(c1O3)CCC[N+]=4CCC2 [SR101-NaphtO-lauric acid]
fluorescence at 600 nm after addition of the esterase (pig liver esterase (PLE)): remarkable fluorescence enhancement

Further lines, results first:

fluorescence at 600 nm after addition of the sulfatase [3]: remarkable fluorescence enhancement
SMILES: O=S(=O)(O)Oc1ccc2c3c(ccc2c1)C(c1ccc(S(=O)(=O)[O-])cc1S(=O)(=O)O)=c1cc2c4c(c1O3)CCC[N+]=4CCC2 [SR101-NaphtO(SO3H)]

fluorescence at 650 nm after addition of sodium hypochlorite [4]: remarkable fluorescence enhancement
SMILES: Nc1ccc(Oc2ccc3c4c(ccc3c2)C(c2ccc(S(=O)(=O)O)cc2S(=O)(=O)O)=c2cc3c5c(c2O4)CCC[N+]=5CCC3)cc1 [SR101-NaphtO(para-aminophenyl)]

fluorescence at 600 nm after addition of the esterase (pig liver esterase (PLE)): remarkable fluorescence enhancement
SMILES: CC(=O)Oc1ccc2c3c(ccc2c1)C(c1ccc(S(=O)(=O)[O-])cc1S(=O)(=O)O)=c1cc2c4c(c1O3)CCC[N+]=4CCC2 [SR101-NaphtOAc]
